Measured values: patent publication EP1501554B1, “BENZOTHIENYL ANALOGUE OF SOMATOSTATINE, SELECTIVE FOR CERTAIN SOMATOSTATIN RECEPTORS” (Advanced Accelerator Applications USA, Inc., priority 2002, dated 2003)
Like-named read-outs stand apart in the source and are kept apart here.

How the values were obtained:
hsst 3 [1] = molecular target: T1, hsst 3 (Homo sapiens, UniProt P32745); test: In vitro binding affinity, transfected cell lines, hsst 3; conditions: IC50±SEM; applicant's series, with own SS-28 reference
T1 construct: expressed in transfected cells

hsst 2 [2] = molecular target: T2, hsst 2 (Homo sapiens, UniProt P30874); test: In vitro binding affinity, transfected cell lines, hsst 2; conditions: IC50±SEM; applicant's series, with own SS-28 reference
T2 construct: expressed in transfected cells

hsst 5 [3] = molecular target: T3, hsst 5 (Homo sapiens, UniProt P35346); test: In vitro binding affinity, transfected cell lines, hsst 5; conditions: IC50±SEM; applicant's series, with own SS-28 reference
T3 construct: expressed in transfected cells

hsst 4 [4] = molecular target: T4, hsst 4 (Homo sapiens, UniProt P31391); test: In vitro binding affinity, transfected cell lines, hsst 4; conditions: IC50±SEM; applicant's series, with own SS-28 reference
T4 construct: expressed in transfected cells

hsst 2 [5] = molecular target: T2, hsst 2; conditions: IC50±SEM; published series (Reubi et al.), referenced to SS-28; cited from earlier work
hsst 4 [6] = molecular target: T4, hsst 4; conditions: IC50±SEM; published series (Reubi et al.), referenced to SS-28; cited from earlier work
hsst 3 [7] = molecular target: T1, hsst 3; conditions: IC50±SEM; published series (Reubi et al.), referenced to SS-28; cited from earlier work
hsst 5 [8] = molecular target: T3, hsst 5; conditions: IC50±SEM; published series (Reubi et al.), referenced to SS-28; cited from earlier work

T1 sequence (P32745 whole entry): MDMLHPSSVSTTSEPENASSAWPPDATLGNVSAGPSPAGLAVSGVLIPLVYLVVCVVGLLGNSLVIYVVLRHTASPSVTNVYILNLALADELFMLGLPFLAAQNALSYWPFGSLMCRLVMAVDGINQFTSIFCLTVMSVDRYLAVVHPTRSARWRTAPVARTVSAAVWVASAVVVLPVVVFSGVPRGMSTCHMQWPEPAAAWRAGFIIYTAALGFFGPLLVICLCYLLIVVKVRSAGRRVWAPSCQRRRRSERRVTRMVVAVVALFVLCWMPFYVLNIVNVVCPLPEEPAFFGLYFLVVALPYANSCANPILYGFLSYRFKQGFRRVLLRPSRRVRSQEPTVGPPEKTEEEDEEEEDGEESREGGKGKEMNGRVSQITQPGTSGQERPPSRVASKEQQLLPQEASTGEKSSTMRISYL
T4 sequence (P31391 whole entry): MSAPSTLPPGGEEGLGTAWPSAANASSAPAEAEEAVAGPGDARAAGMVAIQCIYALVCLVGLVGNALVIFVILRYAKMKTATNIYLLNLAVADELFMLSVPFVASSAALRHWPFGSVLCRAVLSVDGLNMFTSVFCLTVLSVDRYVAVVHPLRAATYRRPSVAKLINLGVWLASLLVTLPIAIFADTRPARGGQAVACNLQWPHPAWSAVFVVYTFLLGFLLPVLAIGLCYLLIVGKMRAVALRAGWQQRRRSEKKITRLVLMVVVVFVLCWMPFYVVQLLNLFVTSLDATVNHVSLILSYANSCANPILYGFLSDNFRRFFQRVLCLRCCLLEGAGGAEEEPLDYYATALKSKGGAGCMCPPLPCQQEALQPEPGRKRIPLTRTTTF
T3 sequence (P35346 whole entry): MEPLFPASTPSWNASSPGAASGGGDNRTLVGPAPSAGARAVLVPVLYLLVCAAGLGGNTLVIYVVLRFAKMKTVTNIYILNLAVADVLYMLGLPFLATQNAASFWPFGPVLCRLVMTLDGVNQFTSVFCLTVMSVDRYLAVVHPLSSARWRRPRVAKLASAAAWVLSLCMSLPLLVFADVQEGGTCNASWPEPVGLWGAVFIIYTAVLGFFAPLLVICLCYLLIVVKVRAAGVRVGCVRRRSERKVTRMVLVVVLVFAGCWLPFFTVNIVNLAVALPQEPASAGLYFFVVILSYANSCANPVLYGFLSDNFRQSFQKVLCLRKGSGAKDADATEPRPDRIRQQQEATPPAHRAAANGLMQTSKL
T2 sequence (P30874 whole entry): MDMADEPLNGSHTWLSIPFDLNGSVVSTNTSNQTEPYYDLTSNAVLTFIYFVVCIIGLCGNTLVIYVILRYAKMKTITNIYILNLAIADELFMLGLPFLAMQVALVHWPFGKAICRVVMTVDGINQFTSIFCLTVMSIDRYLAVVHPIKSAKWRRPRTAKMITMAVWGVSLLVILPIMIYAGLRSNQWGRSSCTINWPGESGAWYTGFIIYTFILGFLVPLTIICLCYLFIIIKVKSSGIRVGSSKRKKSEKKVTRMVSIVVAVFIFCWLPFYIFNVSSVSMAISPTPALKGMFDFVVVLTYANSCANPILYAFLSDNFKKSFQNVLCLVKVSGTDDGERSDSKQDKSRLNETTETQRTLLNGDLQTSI

Compound | IC50 (hsst 3 [1]) [nM] | IC50 (hsst 2 [2]) [nM] | IC50 (hsst 5 [3]) [nM] | IC50 (hsst 4 [4]) [nM] | IC50 (hsst 2 [5]) [nM] | IC50 (hsst 4 [6]) [nM] | IC50 (hsst 3 [7]) [nM] | IC50 (hsst 5 [8]) [nM]
C[C@@H](O)[C@H](NC(=O)[C@@H]1CSSC[C@H](NC(=O)[C@H](N)Cc2ccccc2)C(=O)N[C@@H](Cc2csc3ccccc23)C(=O)N[C@H](Cc2c[nH]c3ccccc23)C(=O)N[C@@H](CCCCN)C(=O)N[C@@H]([C@@H](C)O)C(=O)N1)C(=O)O [compound 13, H-(D)Phe-cyclo[Cys-3-benzothienylalanyl-(D)Trp-Lys-Thr-Cys]-Thr-OH] | 27 | 0.43 | 2.1 | 60 |  |  |  | 
Y-DOTA-LAN [cpd. 5] |  |  |  |  | 23 ± 5 | > 1000 | 290 ± 105 | 16 ± 3.4
Y-DOTA-OC [compound 4] |  |  |  |  | 20 ± 2 | > 1000 |  | 
Y-DOTA-TOC [cpd. 6] |  |  |  |  | 11 ± 1.7 | > 10000 |  | 

Further lines, with some results ahead:

IC50 (hsst 3 [1]) [nM] | IC50 (hsst 2 [2]) [nM] | IC50 (hsst 5 [3]) [nM] | IC50 (hsst 4 [4]) [nM] | Compound | IC50 (hsst 2 [5]) [nM] | IC50 (hsst 4 [6]) [nM] | IC50 (hsst 3 [7]) [nM] | IC50 (hsst 5 [8]) [nM]
26 ± 1.9 | 3.3 ± 0.2 | 10 ± 1.6 | > 1000 | C[C@@H](O)[C@@H]1NC(=O)[C@H](CCCCN)NC(=O)[C@@H](Cc2c[nH]c3ccccc23)NC(=O)[C@H](Cc2cccc3ccccc23)NC(=O)[C@@H](NC(=O)[C@@H](Cc2ccccc2)NC(=O)CN2CCN(CC(=O)O)CCN(CC(=O)O)CCN(CC(=O)O)CC2)CSSC[C@@H](C(=O)N[C@H](CO)[C@@H](C)O)NC1=O [cpd. 8, Y-DOTA-[1-Nal^3]-OC] |  |  |  | 
7 | 1.1 | 4 | 110 | C[C@@H](O)[C@H](NC(=O)[C@@H]1CSSC[C@H](NC(=O)[C@@H](Cc2ccccc2)NC(=O)CN2CCN(CC(=O)O)CCN(CC(=O)O)CCN(CC(=O)O)CC2)C(=O)N[C@@H](Cc2csc3ccccc23)C(=O)N[C@H](Cc2c[nH]c3ccccc23)C(=O)N[C@@H](CCCCN)C(=O)N[C@@H]([C@@H](C)O)C(=O)N1)C(=O)O [cpd. 11, ^111In-labelled DOTA-(D)Phe-cyclo[Cys-3-benzothienylalanyl-(D)Trp-Lys-Thr-Cys]Thr-OH, metal not drawn] |  |  |  | 
